Data reported in patent US20080269170A1, “Novel 2,4-Dianilinopyrimidine Derivatives, the Preparation Thereof, Their Use as Medicaments, Pharmaceutical Compositions and, in Particular, as IKK Inhibitors” (sanofi-aventis, priority 2005, published 2008).

Compound | melting point [°C]
CN1CCC(N(C)S(=O)(=O)c2ccc(Nc3nccc(Nc4ccc(F)c(Cl)c4)n3)cc2)CC1 [Example 12, 4-[4-(3-Chloro-4-fluorophenylamino)pyrimidin-2-ylamino]-N-methyl-N-(1-methylpiperidin-4-yl)benzenesulfonamide] | 183 to 186
CN(C1CCN(Cc2cccs2)CC1)S(=O)(=O)c1ccc(Nc2nccc(Nc3ccc(F)cc3)n2)cc1 [Example 13, 4-[4-(4-Fluorophenylamino)pyrimidin-2-ylamino]-N-methyl-N-(1-thiophen-2-ylmethylpiperidin-4-yl)benzenesulfonamide] | 175 to 176
CN1CCC(N(C2CC2)S(=O)(=O)c2ccc(Nc3nccc(Nc4ccc(F)cc4)n3)cc2)CC1 [Example 14, N-Cyclopropyl-4-[4-(4-fluorophenylamino)-pyrimidin-2-ylamino]-N-(1-methylpiperidin-4-yl)benzene-sulfonamide] | 218
CCN(C1CCN(Cc2ccccc2)C1)S(=O)(=O)c1ccc(Nc2nccc(Nc3ccc(F)cc3)n2)cc1 (stereo not drawn) [Example 15, N-(1-Benzylpyrrolidin-3-yl)-4-[4-(4-fluoro-phenylamino)pyrimidin-2-ylamino]-N-ethylbenzene-sulfonamide] | 125 to 127
CN(C1CCN(Cc2ccsc2)CC1)S(=O)(=O)c1ccc(Nc2nccc(Nc3ccc(F)cc3)n2)cc1 [Example 16, 4-[4-(4-Fluorophenylamino)pyrimidin-2-ylamino]-N-methyl-N-(1-thiophen-3-ylmethylpiperidin-4-yl)benzenesulfonamide] | 173 to 174
CN(C)CCN(C1CCN(C)CC1)S(=O)(=O)c1ccc(Nc2nccc(Nc3ccc(F)cc3)n2)cc1 [Example 18, N-(2-Dimethylaminoethyl)-4-[4-(4-fluoro-phenylamino)pyrimidin-2-ylamino]-N-(1-methylpiperidin-4-yl)benzenesulfonamide] | 135 to 137
CN1CCC(N(CCO)S(=O)(=O)c2ccc(Nc3nccc(Nc4ccc(F)cc4)n3)cc2)CC1 [Example 19, 4-[4-(4-Fluorophenylamino)pyrimidin-2-ylamino]-N-(2-hydroxyethyl)-N-(1-methylpiperidin-4-yl)-benzenesulfonamide] | 125 to 135
CN1CCC(N(C)S(=O)(=O)c2ccc(Nc3nc(Cl)cc(Nc4ccc(F)cc4)n3)cc2)CC1 [Example 20, 4-[4-Chloro-6-(4-fluorophenylamino)pyrimidin-2-ylamino]-N-methyl-N-(1-methylpiperidin-4-yl)benzenesulfonamide] | 140 to 142
CN1CCC(N(C)C(=O)CNS(=O)(=O)c2ccc(Nc3nccc(Nc4ccc(F)cc4)n3)cc2)CC1 [Example 25, 2-{4-[4-(4-Fluorophenylamino)pyrimidin-2-ylamino]benzenesulfonylamino}-N-methyl-N-(1-methyl-piperidin-4-yl)acetamide] | 233 to 234.4
CN(C1CCN(Cc2cc[n+]([O-])cc2)CC1)S(=O)(=O)c1ccc(Nc2nccc(Nc3ccc(F)cc3)n2)cc1 [Example 29, 4-[4-(4-Fluorophenylamino)pyrimidin-2-ylamino]-N-[1-(1-N-oxidepyridin-4-ylmethyl)piperidin-4-yl]-N-methylbenzenesulfonamide] | 155 to 156
Cc1ncc(CN2CCC(N(C)S(=O)(=O)c3ccc(Nc4nccc(Nc5ccc(F)cc5)n4)cc3)CC2)[nH]1 [Example 30, 4-[4-(4-Fluorophenylamino)pyrimidin-2-ylamino]-N-methyl-N-[1-(2-methyl-3H-imidazol-4-ylmethyl)piperidin-4-yl]benzenesulfonamide] | 155
CN(C1CCN(Cc2ccccc2F)CC1)S(=O)(=O)c1ccc(Nc2nccc(Nc3ccc(F)cc3)n2)cc1 [Example 31, N-[1-(2-Fluorobenzyl)piperidin-4-yl]-4-[4-(4-fluorophenylamino)pyrimidin-2-ylamino]-N-methyl-benzenesulfonamide] | 182 to 183
CN(C1CCN(Cc2cccc(F)c2)CC1)S(=O)(=O)c1ccc(Nc2nccc(Nc3ccc(F)cc3)n2)cc1 [Example 32, N-[1-(3-Fluorobenzyl)piperidin-4-yl]-4-[4-(4-fluorophenylamino)pyrimidin-2-ylamino]-N-methyl-benzenesulfonamide] | 207
CN(C1CCN(Cc2ccc(F)cc2)CC1)S(=O)(=O)c1ccc(Nc2nccc(Nc3ccc(F)cc3)n2)cc1 [Example 33, N-[1-(4-Fluorobenzyl)piperidin-4-yl]-4-[4-(4-fluorophenylamino)pyrimidin-2-ylamino]-N-methyl-benzenesulfonamide] | 129 to 131
CC(C)N1CCC(N(C)S(=O)(=O)c2ccc(Nc3nccc(Nc4ccc(F)cc4)n3)cc2)CC1 [Example 37, 4-[4-(4-Fluorophenylamino)pyrimidin-2-yl-amino]-N-(1-isopropylpiperidin-4-yl)-N-methylbenzene-sulfonamide] | 202 to 203
CC(C)CN1CCC(N(C)S(=O)(=O)c2ccc(Nc3nccc(Nc4ccc(F)cc4)n3)cc2)CC1 [Example 38, 4-[4-(4-Fluorophenylamino)pyrimidin-2-yl-amino]-N-(1-isobutylpiperidin-4-yl)-N-methylbenzene-sulfonamide] | 194 to 195
CC(C)CCN1CCC(N(C)S(=O)(=O)c2ccc(Nc3nccc(Nc4ccc(F)cc4)n3)cc2)CC1 [Example 39, 4-[4-(4-Fluorophenylamino)pyrimidin-2-yl-amino]-N-methyl-N-[1-(3-methylbutyl)piperidin-4-yl]-benzenesulfonamide] | 184 to 185
CN(C1CCN(CCCC(F)(F)F)CC1)S(=O)(=O)c1ccc(Nc2nccc(Nc3ccc(F)cc3)n2)cc1 [Example 40, 4-[4-(4-Fluorophenylamino)pyrimidin-2-yl-amino]-N-methyl-N-[1-(4,4,4-trifluorobutyl)piperidin-4-yl]benzenesulfonamide] | 166 to 167
Cc1cc(Nc2ccnc(Nc3ccc(S(=O)(=O)N(CCN)C4CCNCC4)cc3)n2)ccc1F [Example 48, N-(2-Aminoethyl)-4-[4-(4-fluoro-3-methyl-phenylamino)pyrimidin-2-ylamino]-N-piperidin-4-yl-benzenesulfonamide] | 242 to 244
CN(C1CCN(CC(C)(C)O)CC1)S(=O)(=O)c1ccc(Nc2nccc(Nc3ccc(F)cc3)n2)cc1 [Example 49, 4-[4-(4-Fluorophenylamino)pyrimidin-2-yl-amino]-N-[1-(2-hydroxy-2-methylpropyl)piperidin-4-yl]-N-methylbenzenesulfonamide] | 216 to 217
Cc1cc(Nc2ccnc(Nc3ccc(S(=O)(=O)N(C)C4CCN(C)CC4)cc3)n2)ccc1F [Example 86, 4-({4-[(4-fluoro-3-methylphenyl)amino]-pyrimidin-2-yl}amino)-N-methyl-N-(1-methylpiperidin-4-yl)benzenesulfonamide] | 110 to 120
Cc1cc(Nc2ccnc(Nc3ccc(S(=O)(=O)N(CCN4CCCC4)C4CCN(C)CC4)cc3)n2)ccc1F [Example 87, 4-({4-[(4-Fluoro-3-methylphenyl)amino]-pyrimidin-2-yl}amino)-N-(1-methylpiperidin-4-yl)-N-(2-pyrrolidin-1-ylethyl)benzenesulfonamide] | 93 to 103
CN1CCC(N(CCN2CCCC2)S(=O)(=O)c2ccc(Nc3nccc(Nc4ccc(F)cc4)n3)cc2)CC1 [Example 89, 4-({4-[(4-Fluorophenyl)amino]pyrimidin-2-yl}amino)-N-(1-methylpiperidin-4-yl)-N-(2-pyrrolidin-1-ylethyl)benzenesulfonamide] | 250
CC(C)(O)CNCCN(C1CCNCC1)S(=O)(=O)c1ccc(Nc2nccc(Nc3ccc(F)cc3)n2)cc1 [Example 102, 4-({4-[(4-Fluorophenyl)amino]pyrimidin-2-yl}amino)-N-{2-[(2-hydroxy-2-methylpropyl)amino]ethyl}-N-piperidin-4-ylbenzenesulfonamide] | 120
O=S(=O)(c1ccc(Nc2nccc(Nc3ccc(F)cc3)n2)cc1)N(CCNCC(F)(F)F)C1CCN(Cc2ccccc2)CC1 [Example 103, N-(1-Benzylpiperidin-4-yl)-4-({4-[(4-fluorophenyl)amino]pyrimidin-2-yl}amino)-N-{2-[(2,2,2-trifluoroethyl)amino]ethyl}benzenesulfonamide] | 137 to 138
CCN1CC(N(CCN2CCCC2)S(=O)(=O)c2ccc(Nc3nccc(Nc4ccc(F)c(C)c4)n3)cc2)C1 [Example 104, N-(1-Ethylazetidin-3-yl)-4-({4-[(4-fluoro-3-methylphenyl)amino]pyrimidin-2-yl}amino)-N-(2-pyrrolidin-1-ylethyl)benzenesulfonamide] | 195
CN(C1CCN(CCC(F)(F)F)CC1)S(=O)(=O)c1ccc(Nc2nccc(Nc3ccc(F)cc3)n2)cc1 [Example 107, 4-({4-[(4-Fluorophenyl)amino]pyrimidin-2-yl}amino)-N-methyl-N-[1-(3,3,3-trifluoropropyl)piperidin-4-yl]benzenesulfonamide] | 195 to 196
CN(C1CCN(CCCC(F)(F)F)CC1)S(=O)(=O)c1ccc(Nc2nccc(Nc3ccc(F)c(F)c3)n2)cc1 [Example 108, 4-({4-[(3,4-Difluorophenyl)amino]pyrimidin-2-yl}amino)-N-methyl-N-[1-(4,4,4-trifluorobutyl)-piperidin-4-yl]benzenesulfonamide] | 192
CN(C1CCN(CCC(F)(F)F)CC1)S(=O)(=O)c1ccc(Nc2nccc(Nc3ccc(F)c(F)c3)n2)cc1 [Example 109, 4-({4-[(3,4-Difluorophenyl)amino]pyrimidin-2-yl}amino)-N-methyl-N-[1-(3,3,3-trifluoro-propyl)piperidin-4-yl]benzenesulfonamide] | 202 to 203
Cc1cc(Nc2ccnc(Nc3ccc(S(=O)(=O)N(C)C4CCN(Cc5cccn5C)CC4)cc3)n2)ccc1F [Example 110, 4-({4-[(4-Fluoro-3-methylphenyl)amino]-pyrimidin-2-yl}amino)-N-methyl-N-{1-[(1-methyl-1H-pyrrol-2-yl)methyl]piperidin-4-yl}benzenesulfonamide] | 159 to 160
